According to patent US10918610B2, “Compounds and methods of promoting myelination” (Case Western Reserve University, priority 2017, dated 2021):

Biological target: T1, EBP (Mus musculus, UniProt P70245)
T1 construct: endogenous in cells; host or cells: mouse EpiSC-derived oligodendrocyte progenitor cells (EpiSC5 line)
T1 sequence (P70245 1-230): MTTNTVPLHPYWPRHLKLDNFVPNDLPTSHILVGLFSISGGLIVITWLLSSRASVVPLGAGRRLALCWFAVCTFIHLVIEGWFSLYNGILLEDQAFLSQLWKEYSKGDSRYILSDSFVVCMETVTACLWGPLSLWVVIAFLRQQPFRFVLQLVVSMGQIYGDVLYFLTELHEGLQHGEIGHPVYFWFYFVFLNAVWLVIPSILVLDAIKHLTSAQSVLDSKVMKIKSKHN
Assay: GC/MS-based sterol profiling in EpiSC-derived OPCs (EBP inhibition)
Type: cell-based
Experimental: EpiSC-derived OPCs were plated at one million cells per well in PDL- and laminin-coated six well plates with differentiation media. After 24 hours, cells were dissociated with Accutase, rinsed with saline, and cell pellets were frozen. For sterol analyses, cells were lysed in methanol (Sigma-Aldrich) with agitation for 30 minutes and cell debris removed by centrifugation at 10,000 rpm for 15 min. Cholesterol-d7 standard (25,26,26,26,27,27,27-^2H7-cholesterol, Cambridge Isotope Laboratories) was added before drying under nitrogen stream and derivatization with 55 al of bis(trimethylsilyl)trifluoroacetamide/trimethylchlorosilane to form trimethylsilyl derivatives. Following derivatization at 60° C. for 20 minutes, 1 μl was analyzed by gas chromatography/mass spectrometry using an Agilent 5973 Network Mass Selective Detector equipped with a 6890 gas chromatograph system and a HP-5MS capillary column ([…]). Samples were injected in splitless mode and analyzed using electron impact ionization. Ion fragment peaks were integrated to calculate sterol abundance, and quantitation was relative to cholesterol-d7. The following m/z ion fragments were used to quantitate each metabolite: cholesterol-d7 (465), FF-Mas (482), cholesterol (368), zymostenol (458), zymosterol (456), desmosterol (456, 343), 7-dehydrocholesterol (456, 325), lanosterol (393), lathosterol (458), 14-dehydrozymostenol (456). […] After derivatization, 1 al was analyzed by gas chromatography/mass spectrometry using an Agilent 5973 Network Mass Selective Detector equipped with a 6890 gas chromatograph system and a HP-5MS capillary column ([…]). Samples were analyzed in full scan mode using electron impact ionization; ion fragment peaks were integrated to calculate sterol abundance, and quantitation was relative to cholesterol-d7. The following ion fragments were used to quantitate each metabolite: cholesterol-d7 (465), cholesterol (368)(Sigma Aldrich), zymostenol (458), All standards were obtained from Avanti Polar Lipids unless otherwise indicated. […]

[1] = 100 nm, 24 hours, versus DMSO control

zymostenol in mouse OPCs (FIG. 5) (10 nM, 30 nM, 100 nM): accumulate zymostenol
cholesterol in OPCs (FIG. 1B) [1]: produce lesser amounts of cholesterol
zymostenol in OPCs (FIG. 1B) [1]: accumulate zymostenol
SMILES: CCN(C/C=C\c1ccc(C2CCCCC2)c(Cl)c1)C1CCCCC1 [Cis-N-cyclohexyl-N-ethyl-3-(3-chloro-4-cyclohexylphenyl)prop-2-enylamine]
